This is an account of results in US20050033056A1, “Hydroxylated indole derivatives and uses thereof” (priority 2001, published 2005).

One data set relates to CYP1A1/2. The data set can be described thus: CYP induction in primary human hepatocytes, Western immunoblotting: CYP1A1/2. The class given is cell-based. As to conditions: 10 or 50 μM for 72 hours; hepatocytes from three donors. How it is done: (§1) Upon receiving a primary culture of human hepatocytes in 6-well plates, the culture medium containing streptomycin/penicillin was refreshed (2 ml/well). […] Compound 1 stock solution was added to the culture medium at a 1:400 ratio (v/v). The culture medium and testing compounds were replenished every 24 hours.
At the end of the treatment, the cells were harvested into 1 mL of phosphate-buffered saline (PBS) after washing twice. The cells were precipitated by centrifugation, and were resuspended in PBS (approximately 50 μL). The sample preparation, after mixing with […] of Laemmli buffer (62.5 mM Tris-HCl containing 2% SDS, 25% glycerol, and 0.01% bromophenol, pH 6.8) and being rocked for 2-4 hours, was mixed with 10 μL of 2-mercaptoethanol, and heated at 90° C. for 10 minutes before electrophoresis.
Proteins were resolved in a 12% SDS-PAGE gel using a mini gel apparatus at a constant voltage ([…]) for 70-80 minutes, and transferred onto a polyvinylidene difluoride (PVDF) membrane using a membrane-transferring unit at a constant voltage ([…]) for 60 minutes. The membrane was blocked by 5% non-fat dried milk (NFDM) blotting buffer (PBS containing 0.05% Tween 20) at 4° C. overnight. […] CYP proteins were detected by […] using an X-ray developer.

Data set [1] addresses T1, cDNA-expressed recombinant CYP2D6 (Homo sapiens, UniProt P10635).
T1 construct: purchased Gentest Corp. (Woburn, Mass.); host or cells: insect cells (microsomal preparation)
The data set can be described thus: Apparent Ki with recombinant CYP2D6 (bufuralol 1'-hydroxylation; Dixon plots, SNLR). The class given is in vitro ADME. The note with it: for pKi: recombinant CYP2D6. Here is the method:
If inhibition was detected, the inhibitory potency was determined using recombinant CYPs. Compound 1 appeared to inhibit the activities of CYP2D6 and CYP2C19. Therefore, three concentrations of S-mephenyloin (30, 80, and 200 μM) and bufuralol (5, 10, and 40 μM), and a range of concentrations (0-200 μM) of Compound 1 were used for the construction of Dixon plots and simultaneously nonlinear regression (SNLR) analyses were performed. The incubation conditions and sample preparations were the same as previously described.
3. CYP2D6-mediated bufuralol 1′-hydroxylation (Boobis et al., Bioch. Pharmacol. 34:65-71, 1985): The HPLC system was interfaced with a SCIEX API2000 triple quadrupole mass spectrometer (PE Biosystem, Foster City, Calif.). A Sulpelco Discovery C18 column (150×2.1 mm) and isocratic mobile phase was applied. The mobile phase, 10 mM ammonium acetate-acetonitrile/60:40, was run at 0.2 mL/minute. The operation of the LC/MS/MS was controlled by use of software, MacChrom (Version 1.6). The MS/MS was operated at positive ESI with 5.5 kV ionization potential and 500° C. ion source temperature. Multiple reaction monitoring (MRM) was applied for the quantification. The MRM transition ions were m/z 278→186 for 1′-hydroxybufuralol, and m/z 266→234 for the internal standard (1S) albendazole.
Data were acquired and analyzed by ChemStation (Version 6.03, Hewlett Packard, Waldbronn, Germany) for 6-, 7-, and 10-hydroxywarfarin and 6-hydroxychlorzoxazone, and MacQuan (Version 1.6, PE Biosystem, Foster City, Calif.) for 1′-hydroxybufuralol and 4′-hydroxymephenytoin. Quantification was based on peak area ratios of metabolites over the respective IS against the respective concentration of the metabolites. The standard curves were generated by linear regression with (6-, 7-, and 10-hydroxywarfarin, 1′-hydroxybufuralol, and 4′-hydroxymephenytoin) or without (6-hydroxychlorzoxazone) a weighting factor (1/x^2). The metabolic rates were determined using Excel (Microsoft Office 97, Microsoft Corporation, Redmond, Wash.) or SigmaPlot (Version 6.00, SPSS Inc. Chicago, Ill.). […]

Data set [2] has as its system primary culture of human hepatocytes. The data set can be described thus: Morphology of primary human hepatocytes during treatment. In kind it is cell-based. The note with it: cells exposed to Compound 1 compared with control cells. How it is done: as §1
The target in the next data set is T2, 5-HT1A receptor (Homo sapiens, UniProt P08908).
T2 sequence (P08908 1-422): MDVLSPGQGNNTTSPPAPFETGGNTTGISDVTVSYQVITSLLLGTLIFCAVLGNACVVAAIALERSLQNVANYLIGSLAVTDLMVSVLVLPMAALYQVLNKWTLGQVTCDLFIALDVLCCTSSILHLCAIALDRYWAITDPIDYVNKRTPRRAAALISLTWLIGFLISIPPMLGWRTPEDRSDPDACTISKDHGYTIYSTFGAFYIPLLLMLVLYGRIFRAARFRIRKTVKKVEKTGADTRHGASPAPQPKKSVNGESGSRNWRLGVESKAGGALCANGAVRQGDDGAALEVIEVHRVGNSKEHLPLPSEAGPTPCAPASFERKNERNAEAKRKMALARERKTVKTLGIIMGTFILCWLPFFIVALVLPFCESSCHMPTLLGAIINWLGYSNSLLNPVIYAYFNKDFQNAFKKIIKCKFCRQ
The note with it: background statement, see WO 98/43956 and EP 0 976 732 A1; cited from earlier work.

A further data set has as its target 5-HT2 receptor. As to conditions: background statement, see WO 98/43956 and EP 0 976 732 A1; cited from earlier work.

pKi: −log10 of the molar value. “Also recorded” adds a separate entry of the source. Read-outs that look alike come from different tables or passages of the source.

T1 sequence (P10635 whole entry): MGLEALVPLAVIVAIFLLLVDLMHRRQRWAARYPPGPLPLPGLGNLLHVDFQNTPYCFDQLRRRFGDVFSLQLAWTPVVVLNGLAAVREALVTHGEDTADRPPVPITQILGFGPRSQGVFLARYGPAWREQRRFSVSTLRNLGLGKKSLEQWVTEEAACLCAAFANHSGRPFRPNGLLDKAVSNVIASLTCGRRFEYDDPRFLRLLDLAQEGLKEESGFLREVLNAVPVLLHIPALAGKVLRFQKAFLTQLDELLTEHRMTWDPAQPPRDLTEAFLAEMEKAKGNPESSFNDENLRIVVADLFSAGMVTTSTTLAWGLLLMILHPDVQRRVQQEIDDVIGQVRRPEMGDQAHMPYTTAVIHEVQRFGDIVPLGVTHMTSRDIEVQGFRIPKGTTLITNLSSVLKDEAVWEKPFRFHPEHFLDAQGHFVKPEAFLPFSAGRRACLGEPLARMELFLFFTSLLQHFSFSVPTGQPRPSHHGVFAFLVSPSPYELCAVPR

As a reminder, the pKi is the Ki on a negative log10 scale, so that one unit is a factor of ten. `CNC(=O)Cc1ccc2ccn(C3CCN(CCc4ccccc4F)CC3)c2c1` [Compound 1, N-methyl-[1-[1-(2-fluorophenethyl)piperidine-4-yl]-1H-indol-6-yl] acetamide]: the “expression of CYP1A1/2 (Western immunoblotting)” value with CYP1A1/2 is given as “did not increase”. The “type of inhibition of CYP2D6” value in data set [1] (Dixon plots and SNLR analyses) is on record as “competitive inhibitor; also recorded: primarily, if not fully, competitive”. Moreover, the pKi was around 4.70 in data set [1] (Dixon plots, bufuralol 5, 10, 40 μM, read-out: apparent Ki, CYP2D6, estimated by Dixon plots) and 4.82 in data set [1] (SNLR, competitive inhibition model, read-out: apparent Ki, CYP2D6 inhibition, determined by SNLR). Moreover, the “morphologic changes of hepatocytes” value in data set [2] is “marked morphologic changes were not observed”. The “IC50, binding to 5-HT1A receptor” value on 5-HT1A receptor was “low nanomolar”. Further, the “IC50, binding to 5-HT2 receptor” value on 5-HT2 receptor was “low nanomolar”.
